Measurements: US11976083B2, “Inhibitors of peptidylarginine deiminases” (Gilead Sciences, Inc., priority 2020, dated 2024)

Target: T1, human PAD4 (Homo sapiens, UniProt Q9UM07)
T1 construct: human PAD4 (NM_012387), A2-P663, was PCR amplified; His-SUMO (N, cleaved yes); made in house; host or cells: E. coli BL21(DE3)
Assay: In vitro PAD4 BAEE biochemical assay
Settings: BAEE substrate 3 mM, 5 nM PAD4, 2 mM calcium chloride; geometric mean of multiple experiments
How it was run: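 Ammonia produced by BAEE deimination (3 mM substrate, 2 h, 25 °C) was read as fluorescent isoindole after o-phthalaldehyde/DTT derivatization, ex 405 nm/em 535 nm. Human PAD4 at 5 nM final, 2 mM calcium, pH 7.6 MOPS; compound preincubated 30 min. IC50s, normalized to BB-Cl-Amidine and DMSO controls, were geometric-mean averaged.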

T1 sequence (Q9UM07 2-663): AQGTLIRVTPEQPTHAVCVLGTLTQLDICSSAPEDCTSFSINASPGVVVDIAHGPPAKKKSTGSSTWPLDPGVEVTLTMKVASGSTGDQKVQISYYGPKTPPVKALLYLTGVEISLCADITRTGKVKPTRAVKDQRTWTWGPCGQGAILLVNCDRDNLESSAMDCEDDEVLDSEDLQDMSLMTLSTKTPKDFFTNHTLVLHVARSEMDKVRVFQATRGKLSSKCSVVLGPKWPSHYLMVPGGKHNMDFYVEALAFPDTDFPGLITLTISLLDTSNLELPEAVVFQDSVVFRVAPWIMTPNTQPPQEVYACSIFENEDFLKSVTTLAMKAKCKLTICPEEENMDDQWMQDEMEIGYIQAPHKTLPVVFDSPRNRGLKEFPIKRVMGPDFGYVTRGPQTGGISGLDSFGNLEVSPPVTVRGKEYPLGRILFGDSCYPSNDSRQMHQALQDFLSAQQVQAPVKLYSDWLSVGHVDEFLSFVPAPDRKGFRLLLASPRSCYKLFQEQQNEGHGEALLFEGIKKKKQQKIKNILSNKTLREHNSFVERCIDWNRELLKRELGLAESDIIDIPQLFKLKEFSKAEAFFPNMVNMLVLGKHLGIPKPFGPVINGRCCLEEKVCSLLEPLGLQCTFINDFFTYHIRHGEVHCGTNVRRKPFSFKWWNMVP

| SMILES | IC50 [µM] |
| --- | --- |
| COc1cc(C(=O)N2[C@H]3CC[C@@H]2[C@H](N)C3)cc2nc(-c3cc4ccc5nc4n3CCCCCc3ccccc3C(=O)N[C@@H]5C)n(C)c12 [Example 39, (2~{R})-17-[5-[(1~{R},2~{R),4~{S})-2-amino-7-azabicyclo[2.2.1]heptane-7-carbonyl]-7-methoxy-1-methyl-benzimidazol-2-yl]-2-methyl-3,16,22-triazatetracyclo[14.5.2.0^{5,10}.0^{19,23}] tricosa-1(22),5,7,9,17,19(23),20-heptaen-4-one] | 0.023 |
| COc1cc(C(=O)N2[C@H]3CC[C@@H]2[C@H](N)C3)cc2nc(-c3cc4ccc5nc4n3CCCCCCc3ccccc3C(=O)N[C@@H]5C)n(C)c12 [Example 40, (2~{R})-18-[5-[(1~{R},2~{R},4~{S})-2-amino-7-azabicyclo[2.2.1]heptane-7-carbonyl]-7-methoxy-1-methyl-benzimidazol-2-yl]-2-methyl-3,17,23-triazatetracyclo[15.5.2.0^{5,10).0^{20,24}] tetracosa-1(23),5,7,9,18,20(24),21-heptaen-4-one] | 0.024 |
| COc1cc(C(=O)N2[C@H]3CC[C@@H]2[C@H](N)C3)cc2nc(-c3cc4ccc5nc4n3CCCCOc3ccccc3C(=O)N[C@@H]5C)n(C)c12 [Example 41, (2~{R})-17-[5-[(1~{R),2~{R},4~{S})-2-amino-7-azabicyclo[2.2.1]heptane-7-carbonyl]-7-methoxy-1-methyl-benzimidazol-2-yl]-2-methyl-11-oxa-3,16,22-triazatetracyclo[14.5.2.0^{5,10}.0^{19,23}] tricosa-1(22),5,7,9,17,19(23),20-heptaen-4-one] | 0.268 |
| COc1cc(C(=O)N2C[C@H]3CC[C@@H]2[C@@H]3N)cc2nc(-c3cc4ccc5nc4n3CCCCCc3ccccc3C(=O)N[C@@H]5C)n(C)c12 [Example 42, (2~{R})-17-[5-[(1~{R},4~{R},7~{R})-7-amino-2-azabicyclo[2.2.1]heptane-2-carbonyl]-7-methoxy-1-methyl-benzimidazol-2-yl]-2-methyl-3,16,22-triazatetracyclo[14.5.2.0^{5,10}.0^{19,23}] tricosa-1(22),5,7,9,17,19(23),20-heptaen-4-one] | 0.108 |
| COc1cc(C(=O)N2CC[C@@H](OC)[C@@H](N)C2)cc2nc(-c3cc4ccc5nc4n3CCCCCc3ccccc3C(=O)N[C@@H]5C)n(C)c12 [Example 43, (2~{R})-17-[5-[(3~{S},4~{R})-3-amino-4-methoxy-piperidine-1-carbonyl]-7-methoxy-1-methyl-benzimidazol-2-yl]-2-methyl-3,16,22-triazatetracyclo[14.5.2.0^{5,10}.0^{19,23}] tricosa-1(22),5,7,9,17,19(23),20-heptaen-4-one] | 0.118 |
| COc1cc(C(=O)N2C[C@H](N)CCN2C)cc2nc(-c3cc4ccc5nc4n3CCCCCc3ccccc3C(=O)N[C@@H]5C)n(C)c12 [Example 44, (2~{R})-17-[5-[(5~{R})-5-amino-2-methyl-hexahydropyridazine-1-carbonyl]-7-methoxy-1-methyl-benzimidazol-2-yl]-2-methyl-3,16,22-triazatetracyclo[14.5.2.0^{5,10}.0^{19,23}] tricosa-1(22),5,7,9,17,19(23),20-heptaen-4-one] | 0.064 |
| COc1cc(C(=O)N2CCC[C@@H](N)C2)cc2nc(-c3cc4ccc5nc4n3CCCCCCC(=O)Nc3ccncc3-5)n(C)c12 [Example 45, 17-[5-[(3~{R})-3-aminopiperidine-1-carbonyl]-7-methoxy-1-methyl-benzimidazol-2-yl]-4,8,16,22-tetrazatetracyclo[14.5.2.0^{2,7}.0^{19,23}] tricosa-1(22),2,4,6,17,19(23),20-heptaen-9-one] | 4.96 |
| COc1cc(C(=O)N2CCC[C@@H](N)C2)cc2nc(-c3cc4ccc5nc4n3CCCCCCNC(=O)c3ncccc3-5)n(C)c12 [Example 46, 17-[5-[(3~{R})-3-aminopiperidine-1-carbonyl]-7-methoxy-1-methyl-benzimidazol-2-yl]-6,9,16,22-tetrazatetracyclo[14.5.2.0^{2,7}.0^{19,23}] tricosa-1(22),2,4,6,17,19(23),20-heptaen-8-one] | 0.277 |
| COc1cc(C(=O)N2CCC[C@@H](N)C2)cc2nc(-c3cc4ccc5cc4n3CCCCCCC(=O)Nc3ccccc3-5)n(C)c12 [Example 47, 17-[5-[(3~{R})-3-aminopiperidine-1-carbonyl]-7-methoxy-1-methyl-benzimidazol-2-yl]-8,16-diazatetracyclo[14.5.2.0^{2,7}.0^{19,23}] tricosa-1(22),2,4,6,17,19(23),20-heptaen-9-one] | 0.458 |

Continued, values first:

| IC50 [µM] | SMILES |
| --- | --- |
| 0.075 | COc1cc(C(=O)N2[C@H]3CC[C@@H]2[C@H](N)C3)cc2nc(-c3cc4ccc5nc4n3CCCCCCNC(=O)c3ccccc3-5)n(C)c12 [Example 48, 17-[5-[(1~{R),2~{R},4~{S})-2-amino-7-azabicyclo[2.2.1]heptane-7-carbonyl]-7-methoxy-1-methyl-benzimidazol-2-yl]-9,16,22-triazatetracyclo[14.5.2.0^{2,7}.0^{19,23}] tricosa-1(22),2,4,6,17,19(23),20-heptaen-8-one] |
| 0.112 | COc1cc(C(=O)N2CCC[C@@H](N)C2)cc2nc(-c3cc4ccc5nc4n3CCCCCCNC(=O)c3ccccc3-5)n(C)c12 [Example 49, 17-[5-[(3~{R})-3-aminopiperidine-1-carbonyl]-7-methoxy-1-methyl-benzimidazol-2-yl]-9,16,22-triazatetracyclo[14.5.2.0^{2,7}.0^{19,23}] tricosa-1(22),2,4,6,17,19(23),20-heptaen-8-one] |
| 10 | COc1cc(C(=O)N2CCC[C@@H](N)C2)cc2nc(-c3cc4ccc5nc4n3CCCCCCNc3ncccc3-5)n(C)c12 [Example 50, [(3~{R})-3-amino-1-piperidyl]-[7-methoxy-1-methyl-2-(6,8,15,21-tetrazatetracyclo[13.5.2.0^{2,7}.0^{18,22}]docosa-1(21),2,4,6,16,18(22),19-heptaen-16-yl)benzimidazol-5-yl]methanone] |
| 0.215 | COc1cc(C(=O)N2CCC[C@@H](N)C2)cc2nc(-c3cc4ccc5cc4n3CCCCCCNC(=O)c3ccccc3-5)n(C)c12 [Example 51, 17-[5-[(3~{R})-3-aminopiperidine-1-carbonyl]-7-methoxy-1-methyl-benzimidazol-2-yl]-9,16-diazatetracyclo[14.5.2.0^{2,7}.0^{19,23}] tricosa-1(22),2,4,6,17,19(23),20-heptaen-8-one] |
| 0.424 | COc1cc(C(=O)N2CCC[C@@H](N)C2)cc2nc(-c3cc4ccc5cc4n3CCCCCCNC(=O)c3ncccc3-5)n(C)c12 [Example 52, 17-[5-[(3~{R})-3-aminopiperidine-1-carbonyl]-7-methoxy-1-methyl-benzimidazol-2-yl]-6,9,16-triazatetracyclo[14.5.2.0^{2,7}.0^{19,23}] tricosa-1(22),2,4,6,17,19(23),20-heptaen-8-one] |
| 0.283 | COc1cc(C(=O)N2CCC[C@@H](N)C2)cc2nc(-c3cc4ccc5cc4n3CCCCCCC(C)(C)C(=O)Nc3ncccc3-5)n(C)c12 [Example 53, 18-[5-[(3~{R})-3-aminopiperidine-1-carbonyl]-7-methoxy-1-methyl-benzimidazol-2-yl]-10,10-dimethyl-6,8,17-triazatetracyclo[15.5.2.0^{2,7}.0^{20,24}] tetracosa-1(23),2,4,6,18,20(24),21-heptaen-9-one] |
